Measured values: patent publication US20100168112A1, “2-Substituted and 4-substituted aryl nitrone compounds” (RENOVIS, INC., priority 2004, published 2010)
Like-named read-outs stand apart in the source and are kept apart here.

How the values were obtained:
[1] = Microsomal stability in rat liver microsomes; type: in vitro ADME; details: rat liver microsomes 0.5 mg/ml, 1 mM NADPH, ~500 ng/ml compound, 37° C.
Method: (§1) Frozen Sprague-Dawley rat liver microsomes (RLM) were thawed on ice and gently mixed before use. The final reaction mixture consisted of a nitrone compound of this invention (at ˜500 ng/ml), 1 mM NADPH, and 0.5 mg/ml of RLM protein in 0.1 M PBS (pH7.4), with organic solvent concentration not exceeding 1% (v/v). Per set of incubations, a positive control compound was included. The mixture was first pre-incubated 3 to 5 minutes at 37° C. without NADPH, and the reaction was then initialized by the addition of NADPH and incubated at 37° C. for up to 30 minutes. An aliquot of the reaction mixture was sampled at the initiation of the reaction and at designated time after reaction started. The drawn samples were quenched with acetonitrile, diluted with mobile phase to ensure the detection of test article in the linear range, and analyzed by LC/MS/MS. Half-life or percentage of remaining nitrone compound was calculated using standard methods. A similar method, or a slight variation of it, was used to test the stability of nitrones in human liver microsomes (HLM).

[2] = Pharmacokinetic evaluation following intravenous and oral administration in rats; type: in vivo; details: male, Sprague-Dawley; for Cmax / Tmax / bioavailability: 5 mg/kg; for Cmax: rat plasma; for Cmax / Tmax: oral gavage, 2 mg/mL at 2.5 mL/kg; for clearance / Vd / Tmax / bioavailability / half-life: plasma, rat; for clearance / Vd / half-life: 1 mg/kg; for clearance / Vd: intravenous administration, 1 mg/mL at 1.0 mL/kg; for clearance: read-out: CI (clearance) (converted); for Vd: read-out: Vd (volume of distribution); for bioavailability: po 2 mg/mL at 2.5 mL/kg vs iv 1 mg/mL at 1.0 mL/kg, dose-normalized, read-out: F (%) oral bioavailability; for half-life: intravenous, read-out: T1/2 elimination half life (converted)
Summary of the method: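 Male Sprague-Dawley rats, fasted, dosed iv (1 mg/mL formulation, 1.0 mL/kg, jugular or tail vein) or by oral gavage (2 mg/mL suspension, 2.5 mL/kg). Plasma sampled from 2 min to 480 min, some to 24 h, and quantified by LC-MS/MS (MRM). Parameters from noncompartmental analysis.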

[3] = Solubility measurement at pH 7.4; type: physicochemical; details: aqueous buffer, thermodynamic from solid, phosphate buffer pH 7.4, room temperature
Method: Nitrone compounds (>3 mg) of this invention were mixed with a phosphate buffer at pH 7.4 to make a >0.3 mg/mL mixture. The mixture was vortexed for more than 2 hours and equilibrated over 12 hours at room temperature. The equilibrated mixture was used to saturate a 0.45 μm Tuffryn syringe filter. After saturating, the remainder of the mixture was filtered through the saturated filter. The filtrate was diluted by 1, 10, 100, and 1000 fold and analyzed using a LC/MS/MS method with standard curve ranging from 1 to 1000 ng/mL.

1K1C rats = assay: Kidney ischemia-reperfusion injury, one-kidney one-clip (1K1C) model, fractional excretion of sodium; type: in vivo; details: mean ± SEM
Method: Rats were individually housed in a modified cage that was equipped with a raised mesh bottom to separate the fecal product from urine. Before the test, all animals were withheld from food and water overnight. In the morning of the test, normal saline (i.e., 0.9% sodium chloride) was given via oral gavage at […] (Lipschitz, W. L. Hadidian, Z. & Kerpcar, A.: Bioassay of diuretics., J. Pharmacol. Exp. Ther., 79: 97-110, 1943). Samples of blood and urine were collected (standard procedures) at time points (1 and/or 5 hrs after fluid intake) from animals, centrifuged, and kept at 4 degrees until analysis for factors that reflect renal functions. Sodium and creatinine levels were determined by Quality Clinical Labs, Inc. (Mountain View, Calif.). Sodium concentrations were determined by ion selective electrode (standard procedures). Creatinine levels were determined by the alkaline picrated (Jaffe) reaction as described (Liobat-Estelles, M., Sevillano-Cabeja, A. & Campines-Falco, P.: Kinetic chemometric studies of the determination of creatinine using the Jaffe reaction. Part I: kinetics of the reaction; analytical conclusion. Analyst, 11: 597-602, 1989). Fractional excretion of sodium (FENa+), a parameter for ion-handling by the kidney, was calculated, using the following equation: =UNa×Pcr/PNa×Ucr, where UNa is the concentration of sodium in urine; Pcr is the plasma concentration of creatinine; PNa is the […]; and Ucr is the concentration of creatinine in the urine.
After the data for the calculation of basal levels of FENa+ was obtained (Table 16), rats were anesthetized with pentobarbital (65 mg/kg, i.p.). The abdominal region was shaved with a safety razor and sterilized with povidone iodine solution. A midline incision was made and the right kidney was exposed. The right renal pedicle and right urether were both ligated twice with 4-0 sutures and cut between the ligations. The right kidney was then removed. 7 days later, these rats, after another overnight food-water deprivation, were randomly assigned into 3 groups and orally given either Compound 62 (50 mg/kg, at the volume of 1 ml/kg,p.o.) or its vehicle (i.e., 96% of 0.5% CMC and 4 of 20% Tween 80, at the volume of 1 ml/kg, p.o.) 1 hr before kidney ischemia was produced. Positive controls were performed using quercetin (30 mg/kg, i.p.) given 2 hrs before ischemia (Kahraman, A., Erkasap, N., Serteser, M. & Koken, T.: Protective effect of quercetin on renal ischemia/reperfusion injury in rats. J. Nephrol., 16: 219-224, 2003). Animals were then anesthetized and had their left kidneys exposed after opening of their abdominal cavities. A non-traumatic vascular clamp was applied to the left renal pedicle (the ischemia phase), which was released 45 min later (the reperfusion phase). Lipschitz test was then conducted to measure ion-handling capabilities. Normal saline was orally administered at […] as soon as the vascular clamp was released. 60- and 300-min after reperfusion, plasma and urine samples were obtained.

[4] = DPPH free radical-scavenging/antioxidant assay; type: biochemical; details: 50 μM DPPH in 80% methanol; 24 h time point; read-out: EC50 (concentration at which a compound reduces by 50% the peak absorbance of DPPH at 520 nm)
Summary of the method: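 Compounds diluted 100-fold from DMSO stocks into 50 μM DPPH in 80% methanol; absorbance at 520 nm followed kinetically to steady state, with the 24 h reading used. EC50 interpolated from OD520 versus concentration; Trolox, BHA, PBN and S-PBN as positive controls, DMSO as vehicle.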

[5] = Microsomal stability in human liver microsomes; type: in vitro ADME; details: NADPH, 37° C.
Method: as §1

[6] = read-out: Solubility @ pH 7.4 (μg/mL)
[7] = 1K1C rats, Compound 62 50 mg/kg p.o. 1 hr before ischemia, quercetin 30 mg/kg i.p. 2 hrs before, 45 min ischemia

| Compound | % of Nitrone Remaining at 30 min (Rat) [1] [%] | Cmax [2] [ng/mL] | clearance [2] [mL/min/kg] | Vd [2] [L/kg] | Tmax [2] [min] | bioavailability [2] [%] | half-life [2] [min] | solubility ([3]; read-out: Solubility @ pH 7.4) [µM] | solubility [3, 6] [µg/mL] | EC50 [4] [µM] | % of Nitrone Remaining at 30 min (Human) [5] [%] | 1-hr post-ischemic FENa+ (%) (1K1C rats; [7]) | 5-hr post-ischemic FENa+ (%) (1K1C rats; [7]) | FENa+ (%) pre-surgery (basal) levels (1K1C rats; rats before 1K1C modeling, group baseline) [%] |
| --- | --- | --- | --- | --- | --- | --- | --- | --- | --- | --- | --- | --- | --- | --- |
| CC(C)(C)/[N+]([O-])=C/c1ccc(C(=O)O)cc1 [Compound 13, N-tert-Butyl-C-(4-carboxy-phenyl)nitrone] | 100 | 5580 | 12.8 | 0.41 | 19.8 | 64.7 | 22.2 | 9040 | 2000 | – | – | – | – | – |
| O=c1c(O)c(-c2ccc(O)c(O)c2)oc2cc(O)cc(O)c12 [Quercetin, quercetin, reference compound] | – | – | – | – | – | – | – | – | – | – | – | 0.54 ± 0.02 | 5.23 ± 4.43 | 1.60 ± 0.15 |
| CCN(CC)S(=O)(=O)c1ccccc1/C=[N+](\[O-])C1CCCCC1 [Compound 31, N-Cyclohexyl-C-(2-diethylsulfamoylphenyl)nitrone] | 0 | – | – | – | – | – | – | 2890 | 978 | > 1000 | – | – | – | – |
| O=S(=O)(c1ccccc1/C=[N+](\[O-])C1CCCCC1)N1CCCCC1 [Compound 34, N-Cyclohexyl-C-[2-(piperidine-1-sulfonyl)phenyl]nitrone] | 0 | – | – | – | – | – | – | 1420 | 500 | > 1000 | – | – | – | – |
| O=S(=O)(c1ccccc1/C=[N+](\[O-])Cc1ccccc1)N1CCCCC1 [Compound 35, N-Benzyl-C-[2-(piperidine-1-sulfonyl)phenyl]nitrone] | 0 | – | – | – | – | – | – | 107 | 38.4 | > 1000 | – | – | – | – |

Now from value to molecule, other results behind:

| % of Nitrone Remaining at 30 min (Rat) [1] [%] | Cmax [2] [ng/mL] | clearance [2] [mL/min/kg] | Vd [2] [L/kg] | Tmax [2] [min] | bioavailability [2] [%] | half-life [2] [min] | solubility ([3]; read-out: Solubility @ pH 7.4) [µM] | solubility [3, 6] [µg/mL] | EC50 [4] [µM] | % of Nitrone Remaining at 30 min (Human) [5] [%] | Compound | 1-hr post-ischemic FENa+ (%) (1K1C rats; [7]) | 5-hr post-ischemic FENa+ (%) (1K1C rats; [7]) | FENa+ (%) pre-surgery (basal) levels (1K1C rats; rats before 1K1C modeling, group baseline) [%] |
| --- | --- | --- | --- | --- | --- | --- | --- | --- | --- | --- | --- | --- | --- | --- |
| 100 | 3000 | 2.33 | 0.74 | 19.8 | 39.5 | 218 | 14200 | 3130 | – | – | CC(C)(C)/[N+]([O-])=C/c1ccc(C(N)=O)cc1 [Compound 19] | – | – | – |
| 7.4 | 40 | 93.8 | 4.15 | 4.98 | 1.7 | 30.6 | 2530 | 791 | > 1000 | – | CCN(CC)S(=O)(=O)c1ccccc1/C=[N+](\[O-])C(C)(C)C [Compound 30, N-tert-Butyl-C-(2-diethylsulfamoylphenyl)nitrone] | – | – | – |
| 100 | 2240 | 21.5 | 0.62 | 25.2 | 75.1 | 19.8 | 1360 | 376 | – | – | CC(C)(C)NC(=O)c1ccc(/C=[N+](\[O-])C(C)(C)C)cc1 [Compound 18, N-(tert-Butyl)-C-[4-(N-tert-butylcarbamoyl)phenyl]nitrone] | – | – | – |
| 0.3 | 10 | 36.2 | 1.66 | 4.98 | 0.1 | 32.4 | > 3330 | > 1080 | > 1000 | – | CC(C)(C)/[N+]([O-])=C/c1ccccc1S(=O)(=O)N1CCCCC1 [Compound 33, N-tert-Butyl-C-[2-(piperidine-1-sulfonyl)phenyl]nitrone] | – | – | – |
| 78 | 339 | 31.5 | 0.98 | 14.4 | 13.7 | 21 | – | – | 500 to 1000 | 94 | CC(C)S(=O)(=O)c1ccc(/C=[N+](\[O-])C(C)(C)C)c(S(=O)(=O)C(C)C)c1 [Compound 65, N-tert-Butyl-C-(2,4-bis-2-propanesulfonylphenyl)nitrone] | – | – | – |
